The values that follow come from patent US8148391B2 (Cephalon, Inc., priority 2006, dated 2012).

Where two headings read alike, the source gives them in different places. A value given as a limit tells only on which side of the number the result lay.

Experiment [1] has as its target T1, c-Met (cytoplasmic domain) (Homo sapiens, UniProt P08581).
T1 construct: 10 ng/mL c-Met (cytoplasmic domain, Invitrogen Corporation #PV3143); purchased Invitrogen Corporation PV3143
The experiment can be described thus: c-Met Kinase Assay (same methods as for ALK, with modifications). The experiment is classed as biochemical. Summed up:
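Europium-labeled PT66 antibody (Eu-N1) detects substrate phosphorylation on wells coated with phospholipase C-γ at 10 μg/mL. The kinase, the cytoplasmic domain of c-Met at 10 ng/mL, starts the reaction, which proceeds 15 minutes at 37° C.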

The target of experiment [2] is T2, baculovirus-expressed ALK (Homo sapiens, UniProt Q9UM73).
T2 construct: host or cells: baculovirus expression system
T2 sequence (Q9UM73 19-1620): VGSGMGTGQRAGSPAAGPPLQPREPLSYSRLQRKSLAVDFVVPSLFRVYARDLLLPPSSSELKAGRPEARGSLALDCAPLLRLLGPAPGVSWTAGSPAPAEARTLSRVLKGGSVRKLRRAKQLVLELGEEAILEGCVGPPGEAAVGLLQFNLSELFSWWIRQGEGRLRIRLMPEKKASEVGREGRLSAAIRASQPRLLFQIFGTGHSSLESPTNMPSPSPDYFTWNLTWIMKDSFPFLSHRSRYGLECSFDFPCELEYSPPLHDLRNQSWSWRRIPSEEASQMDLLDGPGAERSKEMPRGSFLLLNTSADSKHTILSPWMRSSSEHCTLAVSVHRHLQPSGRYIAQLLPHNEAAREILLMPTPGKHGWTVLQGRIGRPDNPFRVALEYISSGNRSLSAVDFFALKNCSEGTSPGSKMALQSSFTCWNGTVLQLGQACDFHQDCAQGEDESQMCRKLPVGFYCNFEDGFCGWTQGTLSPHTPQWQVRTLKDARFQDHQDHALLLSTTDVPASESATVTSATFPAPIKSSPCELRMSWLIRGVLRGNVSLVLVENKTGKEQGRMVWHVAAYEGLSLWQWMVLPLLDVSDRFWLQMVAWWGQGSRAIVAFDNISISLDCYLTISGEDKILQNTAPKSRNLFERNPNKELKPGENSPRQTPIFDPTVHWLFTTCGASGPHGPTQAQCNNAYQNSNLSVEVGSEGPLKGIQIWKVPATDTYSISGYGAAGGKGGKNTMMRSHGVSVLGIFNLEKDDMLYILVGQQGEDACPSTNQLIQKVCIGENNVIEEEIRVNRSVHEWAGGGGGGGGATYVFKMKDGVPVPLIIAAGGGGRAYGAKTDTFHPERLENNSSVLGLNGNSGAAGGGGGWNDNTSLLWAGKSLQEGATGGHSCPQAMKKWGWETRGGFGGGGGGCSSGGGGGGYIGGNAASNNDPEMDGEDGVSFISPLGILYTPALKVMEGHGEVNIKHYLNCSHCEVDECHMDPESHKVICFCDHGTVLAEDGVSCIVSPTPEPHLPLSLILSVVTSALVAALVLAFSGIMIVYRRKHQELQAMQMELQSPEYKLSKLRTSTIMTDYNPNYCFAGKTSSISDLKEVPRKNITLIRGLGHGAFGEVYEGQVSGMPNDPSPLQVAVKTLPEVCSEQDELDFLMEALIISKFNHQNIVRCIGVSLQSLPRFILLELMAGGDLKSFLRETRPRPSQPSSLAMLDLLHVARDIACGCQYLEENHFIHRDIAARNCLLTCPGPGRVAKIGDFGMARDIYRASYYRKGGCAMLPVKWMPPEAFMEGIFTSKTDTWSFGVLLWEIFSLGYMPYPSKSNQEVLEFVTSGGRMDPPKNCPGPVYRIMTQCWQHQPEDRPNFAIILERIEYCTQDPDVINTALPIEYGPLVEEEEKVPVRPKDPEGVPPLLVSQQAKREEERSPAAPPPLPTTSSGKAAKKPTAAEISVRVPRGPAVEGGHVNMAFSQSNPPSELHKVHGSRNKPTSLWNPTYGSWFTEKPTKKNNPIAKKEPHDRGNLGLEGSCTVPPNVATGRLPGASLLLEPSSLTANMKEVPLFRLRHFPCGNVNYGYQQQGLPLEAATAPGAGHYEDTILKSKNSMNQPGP
The experiment can be described thus: ALK Kinase Assay (ELISA-type, time-resolved fluorescence). The experiment is classed as biochemical. Summed up: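 Plates coated with phospholipase C-γ substrate (10 μg/mL in TBS); reaction started with 30 ng/ml ALK and run 15 min at 37° C. Phosphorylated substrate detected with Eu-N1-labeled PT66 antibody. IC50 from sigmoidal variable-slope fit of percent inhibition vs log concentration.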

The mark [3] stands for this setting: 1 μM ATP (Km level), 10 ng/mL c-Met, read-out: cMet Activity (c-Met kinase inhibition, IC50 class).
Where [4] appears, read: 1 μM ATP (Km level), 30 ng/ml ALK, 37° C., 15 minutes, read-out: ALK Activity (ALK kinase inhibition, IC50 class).
The mark [5] stands for this setting: c-Met kinase inhibition, 1 μM ATP (Km level), read-out: cMet Activity.
The mark [6] stands for this setting: ALK kinase inhibition, 1 μM ATP (Km level), read-out: ALK Activity.
Where [7] appears, read: c-Met kinase inhibition, 1 μM ATP, read-out: cMet Activity.
The mark [8] stands for this setting: ALK kinase inhibition, 1 μM ATP, read-out: ALK Activity.

T1 sequence (P08581 956-1390 limits assumed): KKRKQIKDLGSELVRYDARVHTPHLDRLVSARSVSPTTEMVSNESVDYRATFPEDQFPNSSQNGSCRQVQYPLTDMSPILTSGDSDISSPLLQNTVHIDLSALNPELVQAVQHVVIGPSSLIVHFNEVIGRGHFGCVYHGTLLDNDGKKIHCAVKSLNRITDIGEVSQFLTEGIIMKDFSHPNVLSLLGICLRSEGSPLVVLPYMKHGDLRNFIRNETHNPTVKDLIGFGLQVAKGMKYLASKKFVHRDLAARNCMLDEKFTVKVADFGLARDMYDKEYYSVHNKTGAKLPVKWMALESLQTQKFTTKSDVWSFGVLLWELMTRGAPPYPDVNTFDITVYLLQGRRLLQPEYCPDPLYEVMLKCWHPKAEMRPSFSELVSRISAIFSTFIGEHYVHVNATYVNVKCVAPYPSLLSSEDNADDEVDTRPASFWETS

`COc1cc2c(cc1Nc1ncc(Cl)c(Nc3cccnc3OC)n1)CCN(CC(=O)N(C)C)CC2` [Example 1190, 2-{7-[5-Chloro-4-(2-methoxy-pyridin-3-ylamino)-pyrimidin-2-ylamino]-8-methoxy-1,2,4,5-tetrahydro-benzo[d]azepin-3-yl}-N,N-dimethyl-acetamide]: the IC50 was greater than 10 µM in experiment [1] (setting [3]) and less than 0.1 µM in experiment [2] (setting [4]).
Consider `CCN1CCc2ccc(Nc3ncc(Cl)c(N[C@H]4CCC[C@H]4C(N)=O)n3)cc2CC1` (relative stereo) [Example 176, Cis-2-[5-Chloro-2-(3-ethyl-2,3,4,5-tetrahydro-1H-benzo[d]-azepin-7-ylamino)-pyrimidin-4-ylamino]-cyclopentanecarboxylic acid amide], for which the IC50 in experiment [1] (setting [5]) is 1 to 10 µM; in experiment [2] (setting [6]) it was 0.1 to 1 µM.
Consider `CNC(=O)c1cccc(F)c1Nc1nc(Nc2ccc3c(c2)C(C)(C)NC(=O)CC3)ncc1Cl` [Example 1831, 2-(5-Chloro-2-(1,1-dimethyl-3-oxo-2,3,4,5-tetrahydro-1H-benzo[c]azepin-8-ylamino)pyrimidin-4-ylamino)-3-fluoro-N-methylbenzamide], for which the figures for the IC50 in experiment [1] (setting [7]) and in experiment [2] (setting [8]) were less than 0.1 µM and 1 to 10 µM, respectively.
As for `CS(=O)(=O)N[C@@H]1CCCC[C@H]1Nc1nc(Nc2ccc3c(c2)C2CCC(C3)N2)ncc1Cl` (stereo partly drawn) [Example 82, N-{(1R,2R)-2-[2-(12-Aza-tricyclo[7.2.1.0*2,7*]dodeca-2(7),3,5-trien-4-ylamino)-5-chloro-pyrimidin-4-ylamino]-cyclohexyl}-methanesulfonamide], the IC50 lay within 0.1 to 1 µM in experiment [1] (setting [5]) and 1 to 10 µM in experiment [2] (setting [6]).
In the same order, the values of `CCN1C(=O)C(C)(C)CCc2c1ccc(Nc1ncc(Cl)c(NC3C4C=CC(C4)C3C(N)=O)n1)c2OC` (stereo not drawn) [Example 142, (2-exo, 3-exo)-3-[5-Chloro-2-(1-ethyl-6-methoxy-3,3-dimethyl-2-oxo-2,3,4,5-tetrahydro-1H-benzo[b]azepin-7-ylamino)-pyrimidin-4-ylamino]-bicyclo[2.2.1]hept-5-ene-2-carboxylic acid amide] are greater than 10 µM and less than 0.1 µM.
Consider `CC(C)S(=O)(=O)c1cccc(F)c1Nc1nc(Nc2ccc3c(c2)-n2ccnc2CCC3)ncc1Cl` [Example 1842, 5-Chloro-N*2*-(5,6-dihydro-4H-3,10b-diaza-benzo[e]azulen-9-yl)-N*4*-[2-fluoro-6-(propane-2-sulfonyl)-phenyl]-pyrimidine-2,4-diamine], for which the IC50 in experiment [1] (setting [7]) and in experiment [2] (setting [8]) was less than 0.1 µM in each case.
Consider `CCN1C(=O)C(C)(C)CCc2c1ccc(Nc1ncc(Cl)c(Nc3ccccc3C(=O)NC)n1)c2OC` [Example 144, 2-[5-Chloro-2-(1-ethyl-6-methoxy-3,3-dimethyl-2-oxo-2,3,4,5-tetrahydro-1H-benzo[b]azepin-7-ylamino)-pyrimidin-4-ylamino]-N-methyl-benzamide], for which the IC50 in experiment [1] (setting [5]) is 1 to 10 µM; in experiment [2] (setting [6]), less than 0.1 µM.
Take `COc1cc2c(cc1Nc1ncc(Cl)c(N[C@H]3[C@@H](C(N)=O)[C@@H]4C=C[C@H]3C4)n1)NC(=O)CN(CC1CC1)C2` [Example 1667, (1S,2S,3R,4R)-3-[5-Chloro-2-(4-cyclopropylmethyl-7-methoxy-2-oxo-2,3,4,5-tetrahydro-1H-benzo[e][1,4]diazepin-8-ylamino)-pyrimidin-4-ylamino]-bicyclo[2.2.1]hept-5-ene-2-carboxylic acid amide]: the values for the IC50 in experiment [1] (setting [7]) and in experiment [2] (setting [8]) were greater than 10 µM and less than 0.1 µM, respectively.
As to `CCN1CCN(CC)c2cc(Nc3ncc(Cl)c(Nc4ccccc4NS(C)(=O)=O)n3)c(Cl)cc2C1` [Example 431, N-{2-[5-Chloro-2-(7-chloro-1,4-diethyl-2,3,4,5-tetrahydro-1H-benzo[e][1,4]diazepin-8-ylamino)-pyrimidin-4-ylamino]-phenyl}-methanesulfonamide], the IC50 is 1 to 10 µM in experiment [1] (setting [5]) and less than 0.1 µM in experiment [2] (setting [6]).
As for `CNC(=O)c1sccc1Nc1nc(Nc2ccc3c(c2)OCCCN3C(=O)OC2CCCN(C)C2)ncc1Cl` (centres unmarked) [Example 1440, 3-[5-Chloro-4-(2-methylcarbamoyl-thiophen-3-ylamino)-pyrimidin-2-ylamino]-7,8-dihydro-6H-5-oxa-9-aza-benzocycloheptene-9-carboxylic acid 1-methyl-piperidin-3-yl ester], the IC50 in experiment [1] (setting [7]) and in experiment [2] (setting [8]) was 0.1 to 1 µM throughout.
Regarding `CCN1CCc2ccc(Nc3ncc(Cl)c(NC(C)(C)CNS(C)(=O)=O)n3)cc2CC1` [Example 307, N-{2-[5-Chloro-2-(3-ethyl-2,3,4,5-tetrahydro-1H-benzo[d]azepin-7-ylamino)-pyrimidin-4-ylamino]-2-methyl-propyl}-methanesulfonamide], the IC50 in experiment [1] (setting [5]) was greater than 10 µM; in experiment [2] (setting [6]), 1 to 10 µM.
For `CO[C@@H](CN1CCc2ccc(Nc3ncc(Cl)c(N[C@@H]4CCCC[C@H]4NS(C)(=O)=O)n3)cc2CC1)C(F)(F)F` [Example 336, N-((1R,2R)-2-{5-Chloro-2-[3-((S)-3,3,3-trifluoro-2-methoxy-propyl)-2,3,4,5-tetrahydro-1H-benzo[d]azepin-7-ylamino]-pyrimidin-4-ylamino}-cyclohexyl)-methanesulfonamide] the same measures were 0.1 to 1 µM and less than 0.1 µM.
Take “5-Chloro-N(4)-(2-fluoro-6-methanesulfonyl-phenyl)-(2-fluoro-6-methanesulfonyl-phenyl)2,3,4,5-tetrahydro-1H-3-benzazepin-7-yl]-pyrimidine-2,4-diamine [Example 1262]”: the IC50 in experiment [1] (setting [3]) was 1 to 10 µM; in experiment [2] (setting [4]), 0.1 to 1 µM.
For the compound `COc1cc2c(cc1Nc1ncc(Cl)c(N[C@@H]3CCCC[C@H]3NS(C)(=O)=O)n1)N(C)C(=O)CN(CC1CC1)C2` [Example 746, N-{(1R,2R)-2-[5-Chloro-2-(4-cyclopropylmethyl-7-methoxy-1-methyl-2-oxo-2,3,4,5-tetrahydro-1H-benzo[e][1,4]diazepin-8-ylamino)-pyrimidin-4-ylamino]-cyclohexyl}-methanesulfonamide], the IC50 is greater than 10 µM in experiment [1] (1 μM ATP (Km level), read-out: cMet Activity (c-Met Kinase Inhibition, IC50)) and 0.1 to 1 µM in experiment [2] (1 μM ATP (Km level), read-out: ALK Activity (ALK Kinase Inhibition, IC50)).
Regarding `COCCOc1ccc(Nc2nc(Nc3cc4c(cc3OC)CCN(Cc3ncco3)CC4)ncc2Cl)c(OC)c1` [Example 1174, 5-Chloro-N*4*-[2-methoxy-4-(2-methoxy-ethoxy)-phenyl]-N*2*-(8-methoxy-3-oxazol-2-ylmethyl-2,3,4,5-tetrahydro-1H-benzo[d]azepin-7-yl)-pyrimidine-2,4-diamine], the IC50 in experiment [1] (setting [3]) is greater than 10 µM; in experiment [2] (setting [4]) it was less than 0.1 µM.
For `CN(CCC#N)c1cccc(F)c1Nc1nc(Nc2ccc3c(c2)C(C)(C)CCC(=O)N3)ncc1Cl` [Example 1267, 3-({2-[5-Chloro-2-(5,5-dimethyl-2-oxo-2,3,4,5-tetrahydro-1H-1-benzazepin-7-ylamino)-pyrimidin-4-ylamino]-3-fluoro-phenyl}-methyl-amino)-propionitrile] the same measures were 1 to 10 µM and 0.1 to 1 µM.
In the case of `CCN1CCc2ccc(Nc3ncc(Cl)c(Nc4ccccc4C(=O)NC)n3)cc2CC1` [Example 31, 2-[5-Chloro-2-(3-ethyl-2,3,4,5-tetrahydro-1H-benzo[d]azepin-7-ylamino)-pyrimidin-4-ylamino]-N-methyl-benzamide], the IC50 in experiment [1] (setting [5]) and in experiment [2] (setting [6]) was less than 0.1 µM throughout.
Regarding `CCN1C(=O)CCC(C)(C)c2cc(Nc3ncc(Cl)c(Nc4ccc(N5CCOCC5)cc4OC)n3)ccc21` [Example 391, 7-[5-Chloro-4-(2-methoxy-4-morpholin-4-yl-phenylamino)-pyrimidin-2-ylamino]-1-ethyl-5,5-dimethyl-1,3,4,5-tetrahydro-benzo[b]azepin-2-one], the IC50 in experiment [1] (setting [5]) was greater than 10 µM; in experiment [2] (setting [6]) it was less than 0.1 µM.
For `CCN1CCc2ccc(Nc3ncc(Cl)c(N[C@@H]4CCCC[C@H]4NS(C)(=O)=O)n3)cc2CC1` [Example 441, N-{(1R,2R)-2-[5-Chloro-2-(3-ethyl-2,3,4,5-tetrahydro-1H-benzo[d]azepin-7-ylamino)-pyrimidin-4-ylamino]-cyclohexyl}methanesulfonamide] the same measures were 0.1 to 1 µM and less than 0.1 µM.
In the case of `CNC(=O)c1ccccc1Nc1nc(Nc2ccc3c(c2)NC(=O)CN(Cc2ccccc2)C3)ncc1Cl` [Example 1859, 2-[2-(4-Benzyl-2-oxo-2,3,4,5-tetrahydro-1H-benzo[e][1,4]diazepin-8-ylamino)-5-chloro-pyrimidin-4-ylamino]-N-methyl-benzamide], the IC50 in experiment [1] (setting [7]) and in experiment [2] (setting [8]) was 0.1 to 1 µM in each case.
`COc1cc2c(cc1Nc1ncc(Cl)c(Nc3ccc(N4CCOCC4)cc3OC)n1)CCOC(=O)N2C` [Example 1506, 2-[5-Chloro-4-(2-methoxy-4-morpholin-4-yl-phenylamino)-pyrimidin-2-ylamino]-3-methoxy-5-methyl-8,9-dihydro-5H-7-oxa-5-aza-benzocyclohepten-6-one]: the IC50 in experiment [1] (setting [7]) was greater than 10 µM; in experiment [2] (setting [8]), less than 0.1 µM.
On to `CCOC(=O)N1CC(=O)N(CC)c2cc(Nc3ncc(Cl)c(Nc4c(F)cccc4C(=O)NC)n3)ccc2C1` [Example 1875, 8-[5-Chloro-4-(2-fluoro-6-methylcarbamoyl-phenylamino)-pyrimidin-2-ylamino]-1-ethyl-2-oxo-1,2,3,5-tetrahydro-benzo[e][1,4]diazepine-4-carboxylic acid ethyl ester], for which the IC50 was less than 0.1 µM in experiment [1] (setting [5]) and 1 to 10 µM in experiment [2] (setting [6]).
